These results are taken from PubChem BioAssay (NCI).

“And” between values parts separate entries of the source, which are not always exact repeats. Equal entries are not always repeated.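 All cell lines were grown in 96-well plates and treated with compound for 48 hours. Abbreviation: GI50, concentration required for 50% inhibition of growth. TGI: concentration producing complete growth inhibition.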

Assay in all cases: NCI anticancer screen, dose series, 48 h
In assay [1] the test system is PC-3 prostate.
Assay [2] concerns UO-31 renal.
The test system of assay [3] is HT29 colon.
Assay [4] relates to IGROV1 ovarian.
For assay [5], the system named is DU-145 prostate.
Assay [6] has as its system MOLT-4 leukemia.
The subject of assay [7] is CCRF-CEM leukemia.
Assay [8] relates to NCI-H23 lung.
Assay [9] deals with SNB-75 CNS.
Assay [10] has as its system HCC-2998 colon.

Regarding `C[C@]12CC[C@@H]3c4ccc(O)c([N+](=O)[O-])c4CC[C@H]3[C@@H]1CC[C@@H]2NS(=O)(=O)c1ccc(C(F)(F)F)cc1`, the GI50 is 1.65 µM in assay [1]; 1.5 µM in assay [2]; 2.03 µM in assay [3]; 2.12 µM in assay [4]; 2.63 µM in assay [5]; 2.08 µM in [6]. Also, the GI50 in assay [7] was 2.34 µM; in assay [8], 1.84 µM; in assay [9], 1.43 µM; in assay [10], 2.05 µM. In addition, the TGI in assay [1] came out at 4 µM; in assay [2] it was 3.19 µM; in assay [3] it was 3.71 µM; in assay [4] it was 4.68 µM; in [5], 7.11 µM; in assay [6], 5.99 µM. For the same compound, the TGI in assay [7] came to 7.95 µM; in [8], 4.1 µM; in assay [9], 5.73 µM; in [10], 4.02 µM.

As to `CC(C)n1c(/C=C/[C@@H](O)C[C@@H](O)CC(=O)O)c(-c2ccc(F)cc2)c2ccccc21`, the GI50 in assay [1] was 0.371 µM and 0.65 µM; in assay [2] it was 4.91 µM and 3.26 µM; in assay [3], 12.8 µM and 15.6 µM; in assay [4], 2.99 µM and 2.68 µM; in assay [5], 24.8 µM and 26.4 µM; in assay [6], 16.4 µM and 21.9 µM. For the same compound, the GI50 was 13.8 µM and 13.4 µM in assay [7]; 3.29 µM and 3.86 µM in [8]; 1.43 µM and 0.859 µM in [9]; 10.4 µM and 28.4 µM in assay [10]. Besides, the TGI in assay [1] is over 100 µM; in assay [2], over 100 µM; in assay [3], over 100 µM; in assay [4], over 100 µM; in [5], over 100 µM; in assay [6], 67.5 µM and > 100 µM. Further, the TGI in assay [7], in assay [8], in assay [9] and in [10] was over 100 µM in each case.

With `CSc1ccc(C2=Nn3c(nnc3-c3ccc(F)c(Cl)c3)SC2)cc1`, the GI50 in [1] was 4.67 µM; in assay [2], 16.5 µM; in assay [3], 5.73 µM; in assay [4], 13.1 µM; in assay [5] it was 34.2 µM; in assay [6] it was 7.2 µM. The GI50 in assay [7] is 11.1 µM; in assay [8], 37.4 µM; in [9] it was 4.67 µM; in [10], 24 µM. Also, the TGI was over 100 µM in [1]; 43.7 µM in [2]; 29.7 µM in assay [3]; 44.4 µM in assay [4]; over 100 µM in assay [5]; over 100 µM in assay [6]. The TGI is over 100 µM in [7], over 100 µM in [8], 16 µM in assay [9] and over 100 µM in assay [10].

With `S=C(N/N=C/c1cc(Cl)cc(Cl)c1)NC12CC3CC(CC(C3)C1)C2`, the GI50 in assay [1] is over 30.2 µM; in assay [2], 4.86 µM; in [3], over 58.3 µM; in assay [4], 8.8 µM; in [5] it was 12.8 µM; in [6], over 100 µM. Moreover, the GI50 in [7] is over 61.1 µM; in assay [8], 10.6 µM; in assay [9] it was 2 µM; in assay [10], over 100 µM. Further, the TGI in assay [1], in assay [2], in assay [3], in assay [4], in assay [5] and in assay [6] was over 100 µM each time. Besides, the TGI in assay [7] is over 100 µM; in assay [8], over 100 µM; in assay [9], 5.46 µM; in assay [10], over 100 µM.
